The results in this text go back to patent publication US9993459B2, “Selective HDAC6 inhibitors and uses thereof” (Universiteit Gent, priority 2015, dated 2018).

For test [1], the target named is T1, HDAC6 (Homo sapiens, UniProt Q9UBN7).
T1 sequence (Q9UBN7 1-1215): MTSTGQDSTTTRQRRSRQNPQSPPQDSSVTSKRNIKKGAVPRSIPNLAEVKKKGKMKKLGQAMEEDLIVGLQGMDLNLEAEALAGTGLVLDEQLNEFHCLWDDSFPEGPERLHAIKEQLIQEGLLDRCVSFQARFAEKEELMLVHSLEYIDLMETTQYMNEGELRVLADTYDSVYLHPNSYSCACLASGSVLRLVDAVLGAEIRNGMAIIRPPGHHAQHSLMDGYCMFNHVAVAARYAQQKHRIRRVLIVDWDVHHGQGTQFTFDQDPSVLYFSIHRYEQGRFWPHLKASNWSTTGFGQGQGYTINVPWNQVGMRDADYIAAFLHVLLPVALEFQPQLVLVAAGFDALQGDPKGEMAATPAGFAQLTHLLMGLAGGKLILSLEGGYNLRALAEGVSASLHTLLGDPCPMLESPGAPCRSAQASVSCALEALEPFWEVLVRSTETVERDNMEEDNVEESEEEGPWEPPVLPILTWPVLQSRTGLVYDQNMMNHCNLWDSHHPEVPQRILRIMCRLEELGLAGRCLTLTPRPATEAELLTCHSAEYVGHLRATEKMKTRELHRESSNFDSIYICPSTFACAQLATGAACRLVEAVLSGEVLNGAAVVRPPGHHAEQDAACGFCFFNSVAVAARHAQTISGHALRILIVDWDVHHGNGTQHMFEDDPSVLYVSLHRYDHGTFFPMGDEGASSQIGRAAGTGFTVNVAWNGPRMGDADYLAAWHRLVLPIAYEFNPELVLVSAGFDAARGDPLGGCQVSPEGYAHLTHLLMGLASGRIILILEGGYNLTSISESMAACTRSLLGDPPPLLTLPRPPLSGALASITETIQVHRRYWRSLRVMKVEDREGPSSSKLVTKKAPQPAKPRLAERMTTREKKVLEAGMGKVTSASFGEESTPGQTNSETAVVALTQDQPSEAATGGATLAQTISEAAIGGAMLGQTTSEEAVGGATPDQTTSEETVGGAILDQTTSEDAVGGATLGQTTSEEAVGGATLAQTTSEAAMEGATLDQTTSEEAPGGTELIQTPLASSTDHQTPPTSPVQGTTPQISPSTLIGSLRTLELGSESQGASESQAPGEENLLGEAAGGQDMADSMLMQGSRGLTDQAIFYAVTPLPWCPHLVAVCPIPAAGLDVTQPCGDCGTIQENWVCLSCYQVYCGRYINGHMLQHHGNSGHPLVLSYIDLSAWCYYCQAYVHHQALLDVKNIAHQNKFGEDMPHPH
The experiment in a line: In vitro HDAC6 inhibition. The test is classed as biochemical. As to conditions: for inhibition at 10 µM: HDAC6, 10 μM.

The target of test [2] is HDAC1 (Homo sapiens, UniProt Q13547). The experiment in a line: In vitro HDAC isozyme selectivity screen: HDAC1. The test is classed as biochemical. As to conditions: for IC50: Table 2.
The target of test [3] is HDAC4 (Homo sapiens, UniProt P56524). The experiment in a line: In vitro HDAC isozyme selectivity screen: HDAC4. The conditions noted are these: for IC50: Table 2. Format: biochemical.
Test [4] has as its target HDAC5 (Homo sapiens, UniProt Q9UQL6). The experiment in a line: In vitro HDAC isozyme selectivity screen: HDAC5. The test is classed as biochemical. As to conditions: for IC50: Table 2.
Test [5] has as its target T2, HDAC7 (Homo sapiens, UniProt Q8WUI4).
T2 sequence (Q8WUI4 1-952): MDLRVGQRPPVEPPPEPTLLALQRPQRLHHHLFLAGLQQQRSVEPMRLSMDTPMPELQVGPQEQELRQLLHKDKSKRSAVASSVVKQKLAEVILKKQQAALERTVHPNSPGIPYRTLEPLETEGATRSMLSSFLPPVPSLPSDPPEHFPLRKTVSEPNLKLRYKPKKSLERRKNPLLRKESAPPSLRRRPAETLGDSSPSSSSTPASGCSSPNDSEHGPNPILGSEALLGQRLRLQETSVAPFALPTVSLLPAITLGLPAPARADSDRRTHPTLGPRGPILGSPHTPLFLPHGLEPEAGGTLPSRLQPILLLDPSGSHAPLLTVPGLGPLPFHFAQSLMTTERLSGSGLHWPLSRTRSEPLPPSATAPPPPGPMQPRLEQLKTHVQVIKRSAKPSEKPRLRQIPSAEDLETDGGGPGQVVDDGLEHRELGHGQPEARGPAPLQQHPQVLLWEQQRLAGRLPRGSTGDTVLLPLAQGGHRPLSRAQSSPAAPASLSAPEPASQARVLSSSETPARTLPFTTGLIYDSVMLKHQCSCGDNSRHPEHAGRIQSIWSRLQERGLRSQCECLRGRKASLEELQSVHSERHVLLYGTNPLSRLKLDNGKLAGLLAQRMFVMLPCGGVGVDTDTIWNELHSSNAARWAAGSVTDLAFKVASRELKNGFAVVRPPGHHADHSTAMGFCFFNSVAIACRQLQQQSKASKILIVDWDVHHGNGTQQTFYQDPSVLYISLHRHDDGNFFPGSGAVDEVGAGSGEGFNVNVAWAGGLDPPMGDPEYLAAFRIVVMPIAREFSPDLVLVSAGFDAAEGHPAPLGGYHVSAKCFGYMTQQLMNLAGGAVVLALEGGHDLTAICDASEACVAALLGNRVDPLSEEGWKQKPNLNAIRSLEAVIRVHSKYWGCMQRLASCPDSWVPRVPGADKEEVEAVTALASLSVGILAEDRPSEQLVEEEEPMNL
The experiment in a line: In vitro HDAC isozyme selectivity screen: HDAC7. The test is classed as biochemical. The conditions noted are these: for IC50: Table 2.

For test [6], the target named is HDAC9 (Homo sapiens, UniProt Q9UKV0). The experiment in a line: In vitro HDAC isozyme selectivity screen: HDAC9. The conditions noted are these: for IC50: Table 2. The test is classed as biochemical.
Test [7] deals with T3, HDAC11 (Homo sapiens, UniProt Q96DB2).
T3 sequence (Q96DB2 1-347): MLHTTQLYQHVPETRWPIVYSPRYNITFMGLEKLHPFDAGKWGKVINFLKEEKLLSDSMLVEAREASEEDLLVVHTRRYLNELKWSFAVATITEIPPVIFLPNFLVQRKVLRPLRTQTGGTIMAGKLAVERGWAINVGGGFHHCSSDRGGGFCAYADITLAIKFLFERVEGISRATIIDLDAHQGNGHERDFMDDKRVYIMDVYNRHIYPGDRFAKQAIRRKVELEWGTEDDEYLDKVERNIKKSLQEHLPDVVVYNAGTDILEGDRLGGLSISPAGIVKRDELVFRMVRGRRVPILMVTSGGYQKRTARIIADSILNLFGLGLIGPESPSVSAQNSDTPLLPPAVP
The experiment in a line: In vitro HDAC isozyme selectivity screen: HDAC11. The test is classed as biochemical. The conditions noted are these: Table 2.

The test system of test [8] is glucocorticoid receptor, GR. The experiment in a line: GRE-dependent luciferase reporter p(GRE)2-50-luc in A549 cells. The test is classed as cell-based. The conditions noted are these: for DEX-activated GR-driven gene expression (transcriptional activity of GR): A549, 1 μM or 10 μM, 1 h pre-incubation then DEX 1 μM 5 h. A general note: A reporter such as luciferase makes a cellular process visible.

The target in test [9] is HDAC3 (Homo sapiens, UniProt O15379). The experiment in a line: In vitro HDAC isozyme selectivity screen: HDAC3. Format: biochemical.

Like-named read-outs stand apart in the source and are kept apart here.

Chain of HDAC9 (Q9UKV0 whole entry, species assumed): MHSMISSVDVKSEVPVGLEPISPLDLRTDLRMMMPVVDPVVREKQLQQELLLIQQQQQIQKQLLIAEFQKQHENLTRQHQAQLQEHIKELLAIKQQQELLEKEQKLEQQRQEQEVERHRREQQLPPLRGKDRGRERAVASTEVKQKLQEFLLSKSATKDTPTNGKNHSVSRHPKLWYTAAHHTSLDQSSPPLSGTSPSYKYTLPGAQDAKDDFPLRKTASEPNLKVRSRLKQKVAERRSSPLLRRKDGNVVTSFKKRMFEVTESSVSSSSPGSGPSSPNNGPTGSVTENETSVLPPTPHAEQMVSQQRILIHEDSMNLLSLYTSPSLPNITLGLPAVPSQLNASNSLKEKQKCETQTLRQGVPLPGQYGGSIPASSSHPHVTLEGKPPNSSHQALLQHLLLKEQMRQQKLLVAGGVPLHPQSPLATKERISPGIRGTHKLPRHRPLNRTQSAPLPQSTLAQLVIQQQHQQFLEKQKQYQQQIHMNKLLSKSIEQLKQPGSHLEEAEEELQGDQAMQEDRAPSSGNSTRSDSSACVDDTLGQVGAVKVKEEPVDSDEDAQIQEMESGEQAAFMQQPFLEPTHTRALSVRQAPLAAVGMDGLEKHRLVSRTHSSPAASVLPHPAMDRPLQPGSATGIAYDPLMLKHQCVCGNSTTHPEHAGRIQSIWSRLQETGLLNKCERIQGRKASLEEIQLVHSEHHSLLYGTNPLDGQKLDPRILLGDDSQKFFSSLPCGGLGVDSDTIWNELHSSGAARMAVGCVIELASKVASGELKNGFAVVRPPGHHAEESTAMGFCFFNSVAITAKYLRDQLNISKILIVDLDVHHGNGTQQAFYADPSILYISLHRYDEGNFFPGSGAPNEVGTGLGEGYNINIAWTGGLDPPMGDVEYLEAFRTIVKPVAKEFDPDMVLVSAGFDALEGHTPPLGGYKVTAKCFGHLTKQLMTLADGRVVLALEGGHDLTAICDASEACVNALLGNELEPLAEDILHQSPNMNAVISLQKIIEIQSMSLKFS
Chain of HDAC1 (Q13547 whole entry, species assumed): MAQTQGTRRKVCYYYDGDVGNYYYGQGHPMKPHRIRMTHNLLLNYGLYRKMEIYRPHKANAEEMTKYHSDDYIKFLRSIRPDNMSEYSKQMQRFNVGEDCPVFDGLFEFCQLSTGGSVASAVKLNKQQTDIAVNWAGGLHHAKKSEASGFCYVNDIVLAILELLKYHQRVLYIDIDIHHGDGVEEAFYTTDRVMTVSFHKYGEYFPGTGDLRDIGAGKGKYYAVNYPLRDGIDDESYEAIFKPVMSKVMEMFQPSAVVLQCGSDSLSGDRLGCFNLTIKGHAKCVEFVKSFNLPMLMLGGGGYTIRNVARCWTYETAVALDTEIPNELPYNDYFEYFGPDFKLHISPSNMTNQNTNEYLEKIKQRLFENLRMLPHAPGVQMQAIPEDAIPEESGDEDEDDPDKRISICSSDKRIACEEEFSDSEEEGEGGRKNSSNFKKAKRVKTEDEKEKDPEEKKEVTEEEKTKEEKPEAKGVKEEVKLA
Chain of HDAC4 (P56524 whole entry, species assumed): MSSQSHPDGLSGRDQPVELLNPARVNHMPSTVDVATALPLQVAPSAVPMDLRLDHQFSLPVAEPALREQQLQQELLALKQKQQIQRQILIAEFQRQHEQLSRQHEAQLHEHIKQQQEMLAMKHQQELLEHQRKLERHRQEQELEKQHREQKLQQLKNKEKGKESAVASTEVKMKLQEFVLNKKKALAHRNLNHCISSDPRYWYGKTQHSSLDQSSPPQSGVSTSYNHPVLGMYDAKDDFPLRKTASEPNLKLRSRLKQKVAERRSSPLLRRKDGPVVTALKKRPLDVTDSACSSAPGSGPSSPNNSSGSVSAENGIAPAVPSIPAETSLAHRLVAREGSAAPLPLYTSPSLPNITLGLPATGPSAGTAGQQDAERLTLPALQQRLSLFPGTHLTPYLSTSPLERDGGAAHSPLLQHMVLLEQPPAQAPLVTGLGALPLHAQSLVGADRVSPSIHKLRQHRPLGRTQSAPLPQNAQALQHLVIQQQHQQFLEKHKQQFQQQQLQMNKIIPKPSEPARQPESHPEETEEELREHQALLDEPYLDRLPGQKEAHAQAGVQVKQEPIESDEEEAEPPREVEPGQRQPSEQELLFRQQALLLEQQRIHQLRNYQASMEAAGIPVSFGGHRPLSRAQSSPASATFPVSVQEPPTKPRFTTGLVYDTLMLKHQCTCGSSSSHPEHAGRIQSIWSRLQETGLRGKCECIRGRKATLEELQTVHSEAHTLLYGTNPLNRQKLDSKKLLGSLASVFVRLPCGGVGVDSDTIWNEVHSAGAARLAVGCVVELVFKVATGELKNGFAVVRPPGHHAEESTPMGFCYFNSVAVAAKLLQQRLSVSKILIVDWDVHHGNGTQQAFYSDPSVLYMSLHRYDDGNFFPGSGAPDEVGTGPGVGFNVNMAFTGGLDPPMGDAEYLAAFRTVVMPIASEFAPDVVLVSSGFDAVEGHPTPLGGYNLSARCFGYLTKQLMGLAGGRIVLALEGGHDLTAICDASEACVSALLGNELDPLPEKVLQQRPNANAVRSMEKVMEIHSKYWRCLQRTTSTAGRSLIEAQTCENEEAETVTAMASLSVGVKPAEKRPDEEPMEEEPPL
Chain of HDAC5 (Q9UQL6 whole entry, species assumed): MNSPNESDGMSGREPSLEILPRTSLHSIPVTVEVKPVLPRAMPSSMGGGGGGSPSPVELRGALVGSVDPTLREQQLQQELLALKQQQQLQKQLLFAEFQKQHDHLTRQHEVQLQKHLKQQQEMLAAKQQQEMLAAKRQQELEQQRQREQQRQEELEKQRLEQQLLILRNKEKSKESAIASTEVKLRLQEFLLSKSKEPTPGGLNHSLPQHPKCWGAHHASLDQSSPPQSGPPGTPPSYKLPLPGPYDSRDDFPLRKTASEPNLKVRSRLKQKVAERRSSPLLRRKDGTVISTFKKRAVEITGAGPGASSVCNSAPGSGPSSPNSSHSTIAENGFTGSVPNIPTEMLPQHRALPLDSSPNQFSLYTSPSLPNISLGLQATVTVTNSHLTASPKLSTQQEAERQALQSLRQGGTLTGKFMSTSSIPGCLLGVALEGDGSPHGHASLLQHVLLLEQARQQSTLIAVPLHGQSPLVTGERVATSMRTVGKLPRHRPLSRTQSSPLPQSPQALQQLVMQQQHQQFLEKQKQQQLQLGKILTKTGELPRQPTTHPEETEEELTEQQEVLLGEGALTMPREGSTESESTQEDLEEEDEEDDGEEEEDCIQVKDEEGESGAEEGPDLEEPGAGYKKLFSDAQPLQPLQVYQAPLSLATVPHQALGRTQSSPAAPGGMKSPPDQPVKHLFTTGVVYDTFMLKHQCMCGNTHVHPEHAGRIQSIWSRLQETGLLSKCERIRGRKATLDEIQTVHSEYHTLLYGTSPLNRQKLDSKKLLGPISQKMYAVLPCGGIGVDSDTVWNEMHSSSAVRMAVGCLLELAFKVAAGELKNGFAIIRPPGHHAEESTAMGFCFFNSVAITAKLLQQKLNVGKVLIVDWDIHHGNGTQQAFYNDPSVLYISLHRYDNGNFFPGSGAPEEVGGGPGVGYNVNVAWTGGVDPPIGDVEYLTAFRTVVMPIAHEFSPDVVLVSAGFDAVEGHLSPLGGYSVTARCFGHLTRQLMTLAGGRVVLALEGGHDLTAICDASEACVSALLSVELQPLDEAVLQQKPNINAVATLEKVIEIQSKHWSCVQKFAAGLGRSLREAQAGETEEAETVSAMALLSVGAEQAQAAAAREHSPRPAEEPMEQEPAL
Chain of HDAC3 (O15379 whole entry, species assumed): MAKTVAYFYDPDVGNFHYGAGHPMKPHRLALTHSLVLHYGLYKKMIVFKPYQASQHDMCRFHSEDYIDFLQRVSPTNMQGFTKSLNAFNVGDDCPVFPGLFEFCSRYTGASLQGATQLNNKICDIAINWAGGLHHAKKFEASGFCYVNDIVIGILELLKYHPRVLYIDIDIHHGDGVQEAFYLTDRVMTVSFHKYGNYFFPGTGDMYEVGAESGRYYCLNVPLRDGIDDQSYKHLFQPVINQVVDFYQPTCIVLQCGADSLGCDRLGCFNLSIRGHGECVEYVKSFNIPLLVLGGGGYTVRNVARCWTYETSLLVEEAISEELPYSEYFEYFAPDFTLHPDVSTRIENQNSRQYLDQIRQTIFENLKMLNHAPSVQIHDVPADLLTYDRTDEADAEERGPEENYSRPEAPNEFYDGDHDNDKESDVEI
Chain of HDAC3 (Q9Y618 395-489 partner limits assumed, species assumed): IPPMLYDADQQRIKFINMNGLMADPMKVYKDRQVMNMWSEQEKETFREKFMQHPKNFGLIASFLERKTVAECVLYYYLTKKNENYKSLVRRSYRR

Turning to `O=C(NO)c1ccc(NCc2csc3ccccc23)cc1` [Compound 7a, 3-[(4-hydroxycarbamoylphenyl)aminomethyl]benzothiophene], in test [1], the inhibition – broadly, the drop in the measured response relative to a control, in per cent – at 10 µM stood at 99.8%. For the same compound, the IC50 (as a rule, the midpoint of a concentration-inhibition curve) in test [1] (HDAC6, Table 1, read-out: IC50) stood at 0.014 µM; in test [2], 7.5 µM; in test [3], 10 µM; in test [4], 17 µM; in [5], 5.2 µM; in test [6], 7.1 µM. Also, in test [7], the IC50 amounted to 31 µM. The “DEX-activated GR-driven gene expression (transcriptional activity of GR)” value in test [8] was “leaves the transcriptional activity of GR unhampered”. Also, the “enhancement of GR-driven gene expression” value in [8] (A549, 1 μM, with DEX 1 μM) is on record as “able to significantly enhance GR-driven gene expression”.

For `O=C(NO)c1ccc(NCc2csc3ccc(Br)cc23)cc1` [Compound 7b, 5-bromo-3-[(4-hydroxycarbamoylphenyl)aminomethyl]-benzothiophene], the inhibition at 10 µM in test [1] came to 99.2%. In addition, the IC50 in test [1] (HDAC6, Table 1, read-out: IC50) was 0.037 µM; in [1] (Table 2, read-out: IC50 HDAC6), 0.037 µM; in [3], greater than 100 µM; in test [4], greater than 100 µM; in test [6], greater than 100 µM; in test [7], 15 µM. Besides, in test [2] (100 μM), the “effect at 100 μM, HDAC1” value is recorded as “less than 50%”. In addition, the “effect at 100 μM, HDAC3” value in [9] (100 μM) was “less than 50%”. In addition, in test [3] (100 μM), the “effect at 100 μM, HDAC4” value is “less than 50%”. In addition, the “effect at 100 μM, HDAC5” value in [4] (100 μM) was “less than 50%”. The “effect at 100 μM, HDAC7” value in test [5] (100 μM) is on record as “less than 50%”. For the same compound, the “effect at 100 μM, HDAC9” value in [6] (100 μM) is on record as “less than 50%”. For the same compound, in test [8], the “DEX-activated GR-driven gene expression (transcriptional activity of GR)” value is reported as “leaves the transcriptional activity of GR unhampered”.

In [1], `O=C(NO)c1ccc(NCc2csc3cc(Br)ccc23)cc1` [Compound 13a, 6-bromo-3-[(4-hydroxycarbamoylphenyl)aminomethyl]-benzothiophene] had an inhibition at 10 µM of 99.3%. The IC50 in [1] (HDAC6, Table 1, read-out: IC50) is 0.064 µM; in [2], 3.4 µM; in [9] (Table 2), 6.6 µM; in [3], 31 µM; in test [4], 45 µM; in test [5] it was 12 µM. In addition, the IC50 came to 25 µM in [6] and 1.2 µM in test [7].
